Source: US8759334B2, “Compounds useful for the treatment of metabolic and inflammatory diseases” (Galapagos NV, priority 2011, dated 2014)

Target: T1, GPR43 (Homo sapiens, UniProt O15552)
T1 construct: expressed in transfected cells
T1 sequence (O15552 1-330): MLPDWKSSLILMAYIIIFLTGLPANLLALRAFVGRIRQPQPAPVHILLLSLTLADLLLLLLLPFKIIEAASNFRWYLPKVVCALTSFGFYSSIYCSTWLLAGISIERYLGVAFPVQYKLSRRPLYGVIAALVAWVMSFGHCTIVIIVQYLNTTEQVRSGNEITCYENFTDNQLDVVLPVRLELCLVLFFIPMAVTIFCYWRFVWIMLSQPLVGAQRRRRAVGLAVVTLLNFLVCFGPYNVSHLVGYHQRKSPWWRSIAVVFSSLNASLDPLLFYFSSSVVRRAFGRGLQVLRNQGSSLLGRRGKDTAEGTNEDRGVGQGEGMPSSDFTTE
Assay: Calcium mobilization assay with probenecid
Format: cell-based
Conditions: GPR43 stably expressing cells; triggered with sodium acetate at EC80; 2.5 mM probenecid; read-out: GPR43 assay with probenicid IC50
Description: The following assay can be used for determination of GPR43 activation. The assay measures intracellular calcium release induced by activation of GPR43. On day 1, GPR43 stably expressing cells were detached with mild trypsinization (Trypsin, 0.25% with EDTA 4Na, 5× diluted in PBS) centrifuged at 1000 rpm for 5 min and resuspended at 6.000 cells/25 […] medium (DMEM supplemented with 10% FBS, 10 μg/mL puromycin and 1% Pen/Strep). The cells were distributed in poly-D-lysine coated 384 well plates (black with clear bottom, 25 μL/well) and incubated overnight at 37° C. 10% CO2.
On day 2, 25 μL of a fluorescent Ca^2+ indicator (Calcium 4 assay; Molecular Devices) supplemented with 2.5 mM probenecid was added on top of the cells and incubated for 2 h at 37° C. Subsequently, compounds at increasing concentration (10 μL/well) were added to the plate and incubated for 15 min at 37° C.
To measure agonist activity of the compounds, compound was added to the well and the Ca^2+-flux was measured simultaneously to the […] of compound.

SMILES	IC50
CN(Cc1ccc(Cl)cc1)C(=O)C1(C)CCN1C(=O)Cc1cc(F)cc(F)c1 (centres unmarked) [Compound 19, 1-[2-(3,5-Difluoro-phenyl)-acetyl]-2-methyl-azetidine-2-carboxylic acid (4-chloro-benzyl)-methyl-amide]	> 1000 nM
Cc1cc(C)cc(CC(=O)N2CCC2(C)C(=O)N(C)Cc2cccc(Br)c2)c1 (centres unmarked) [Compound 39, 1-[2-(3,5-Dimethyl-phenyl)-acetyl]-2-methyl-azetidine-2-carboxylic acid (3-bromo-benzyl)-methyl-amide]	> 1000 nM
Cc1ccc(C)c(CC(=O)N2CCC2(C)C(=O)N(C)Cc2ccc(Cl)cc2)c1 (centres unmarked) [Compound 41, 1-[2-(2,5-Dimethyl-phenyl)-acetyl]-2-methyl-azetidine-2-carboxylic acid (4-chloro-benzyl)-methyl-amide]	> 1000 nM
COC(=O)[C@@H](C)N(Cc1ccc(Cl)cc1)C(=O)C1(C)CCN1C(=O)Cc1cc(C)cc(C)c1 (stereo partly drawn) [Compound 73, (R)-2-((4-Chloro-benzyl)-{1-[2-(3,5-dimethyl-phenyl)-acetyl]-2-methyl-azetidine-2-carbonyl}-amino)-propionic acid methyl ester]	501 to 1000 nM
Cc1cc(C)cc(CC(=O)N2CCC2(C)C(=O)N(Cc2ccc(Cl)cc2)Cc2nnn[nH]2)c1 (centres unmarked) [Compound 76, 1-[2-(3,5-Dimethyl-phenyl)-acetyl]-2-methyl-azetidine-2-carboxylic acid (4-chloro-benzyl)-(1H-tetrazol-5-ylmethyl)-amide]	> 1000 nM
Cc1cc(C)cc(CC(=O)N2CCC2(C)C(=O)N(CC(=O)NC2CC2)Cc2ccc(Cl)cc2)c1 (centres unmarked) [Compound 81, 1-[2-(3,5-Dimethyl-phenyl)-acetyl]-2-methyl-azetidine-2-carboxylic acid (4-chloro-benzyl)-cyclopropylcarbamoylmethyl-amide]	101 to 500 nM
CC1(C(=O)N(CCCC#N)Cc2ccc(Cl)cc2)CCN1C(=O)Cc1csc2ccccc12 (centres unmarked) [Compound 99, 1-(2-Benzo[b]thiophen-3-yl-acetyl)-2-methyl-azetidine-2-carboxylic acid (4-chloro-benzyl)-(3-cyano-propyl)-amide]	101 to 500 nM
Cc1cc(C)cc(CC(=O)N2CCC2(C)C(=O)N(CC(=O)NS(=O)(=O)c2ccccc2)Cc2ccc(Cl)cc2)c1 (centres unmarked) [Compound 104, 1-[2-(3,5-Dimethyl-phenyl)-acetyl]-2-methyl-azetidine-2-carboxylic acid (2-benzenesulfonylamino-2-oxo-ethyl)-(4-chloro-benzyl)-amide]	501 to 1000 nM
CN(Cc1ccc(Cl)cc1)C(=O)C1(C)CCN1C(=O)Cc1cccc2sccc12 (centres unmarked) [Compound 105, 1-(2-Benzo[b]thiophen-4-yl-acetyl)-2-methyl-azetidine-2-carboxylic acid (4-chloro-benzyl)-methyl-amide]	> 1000 nM
CN(Cc1ccc(Cl)cc1)C(=O)C1(C)CCN1C(=O)Cc1ccc(F)c2ccccc12 (centres unmarked) [Compound 106, 1-[2-(4-Fluoro-naphthalen-1-yl)-acetyl]-2-methyl-azetidine-2-carboxylic acid (4-chloro-benzyl)-methyl-amide]	> 1000 nM
Cc1cc(C)cc(CC(=O)N2CCC2(C)C(=O)N(CCc2noc(O)n2)Cc2ccc(Cl)cc2)c1 (centres unmarked) [Compound 107, 1-[2-(3,5-Dimethyl-phenyl)-acetyl]-2-methyl-azetidine-2-carboxylic acid (4-chloro-benzyl)-[2-(5-hydroxy-[1,2,4]oxadiazol-3-yl)-ethyl]-amide]	> 1000 nM

Second part, the molecule after the results:

IC50	SMILES
> 1000 nM	CN(Cc1ccc(Cl)cc1)C(=O)C1(C)CCN1C(=O)Cc1cc2ccccc2s1 (centres unmarked) [Compound 108, 1-(2-Benzo[b]thiophen-2-yl-acetyl)-2-methyl-azetidine-2-carboxylic acid (4-chloro-benzyl)-methyl-amide]
101 to 500 nM	Cc1cc(C)cc(CC(=O)N2CCC2(C)C(=O)N(CCc2nnn[nH]2)Cc2ccc(Cl)cc2)c1 (centres unmarked) [Compound 109, 1-[2-(3,5-Dimethyl-phenyl)-acetyl]-2-methyl-azetidine-2-carboxylic acid (4-chloro-benzyl)-[2-(1H-tetrazol-5-yl)-ethyl]-amide]
501 to 1000 nM	Cc1cc(C)cc(CC(=O)N2CCC2(C)C(=O)N(Cc2ccc(Cl)cc2)Cc2nnc(O)o2)c1 (centres unmarked) [Compound 111, 1-[2-(3,5-Dimethyl-phenyl)-acetyl]-2-methyl-azetidine-2-carboxylic acid (4-chloro-benzyl)-(5-hydroxy-[1,3,4]oxadiazol-2-ylmethyl)-amide]
501 to 1000 nM	CN(Cc1ccc(Cl)cc1)C(=O)C1(C)CCN1C(=O)c1ccc2sccc2c1 (centres unmarked) [Compound 112, 1-(Benzo[b]thiophene-5-carbonyl)-2-methyl-azetidine-2-carboxylic acid (4-chloro-benzyl) methyl-amide]
501 to 1000 nM	Cc1cc(C)cc(CC(=O)N2CCC2(C)C(=O)N(Cc2ccc(Cl)cc2)Cc2noc(O)n2)c1 (centres unmarked) [Compound 114, 1-[2-(3,5-Dimethyl-phenyl)-acetyl]-2-methyl-azetidine-2-carboxylic acid (4-chloro-benzyl)-(5-hydroxy-[1,2,4]oxadiazol-3-ylmethyl)-amide]
> 1000 nM	Cc1cc(C)cc(CC(=O)N2CCC2(C)C(=O)N(CCc2cc(O)[nH]n2)Cc2ccc(Cl)cc2)c1 (centres unmarked) [Compound 116, 1-[2-(3,5-Dimethyl-phenyl)-acetyl]-2-methyl-azetidine-2-carboxylic acid (4-chloro-benzyl)-[2-(5-hydroxy-1H-pyrazol-3-yl)-ethyl]-amide]
> 1000 nM	Cc1cc(C)cc(CC(=O)N2CCC2(C)C(=O)N(CCc2cc(O)n(C)n2)Cc2ccc(Cl)cc2)c1 (centres unmarked) [Compound 117, 1-[2-(3,5-Dimethyl-phenyl)-acetyl]-2-methyl-azetidine-2-carboxylic acid (4-chloro-benzyl)-[2-(5-hydroxy-1-methyl-1H-pyrazol-3-yl)-ethyl]-amide]
> 1000 nM	CCOc1cc(CCN(Cc2ccc(Cl)cc2)C(=O)C2(C)CCN2C(=O)Cc2cc(C)cc(C)c2)nn1C (centres unmarked) [Compound 118, 1-[2-(3,5-Dimethyl-phenyl)-acetyl]-2-methyl-azetidine-2-carboxylic acid (4-chloro-benzyl)-[2-(5-ethoxy-1-methyl-1H-pyrazol-3-yl)-ethyl]-amide]
> 1000 nM	Cc1cc(C)cc(CC(=O)N2CCC2(C)C(=O)N(CCc2nnc(O)o2)Cc2ccc(Cl)cc2)c1 (centres unmarked) [Compound 119, 1-[2-(3,5-Dimethyl-phenyl)-acetyl]-2-methyl-azetidine-2-carboxylic acid (4-chloro-benzyl)-[2-(5-hydroxy-[1,3,4]oxadiazol-2-yl)-ethyl]-amide]
> 1000 nM	CCOc1cc(CCN(Cc2ccc(Cl)cc2)C(=O)C2(C)CCN2C(=O)Cc2cc(C)cc(C)c2)n[nH]1 (centres unmarked) [Compound 120, 1-[2-(3,5-Dimethyl-phenyl)-acetyl]-2-methyl-azetidine-2-carboxylic acid (4-chloro-benzyl)-[2-(5-ethoxy-1H-pyrazol-3-yl)-ethyl]-amide]
> 1000 nM	CN(Cc1ccc(Cl)cc1)C(=O)C1(C)CCN1C(=O)c1ccc2occc2c1 (centres unmarked) [Compound 121, 1-(benzofuran-5-carbonyl)-N-(4-chlorobenzyl)-N,2-dimethylazetidine-2-carboxamide]
501 to 1000 nM	Cc1cc(C)cc(CC(=O)N2CCC2(C)C(=O)N(CCCC(=O)N2CCN(C)CC2)Cc2ccc(Cl)cc2)c1 (centres unmarked) [Compound 124, 1-[2-(3,5-Dimethyl-phenyl)-acetyl]-2-methyl-azetidine-2-carboxylic acid (4-chloro-benzyl)-[4-(4-methyl-piperazin-1-yl)-4-oxo-butyl]-amide]
